Experimental data: US10544460B2, “Homeobox transcription factor ventx regulates differentiation and maturation of human dendritic cells” (priority 2013, dated 2020)

Assays:
VentX [1] = assay: VentX knockdown efficiency in monocytes / monocyte-derived DCs; format: cell-based, human; conditions: 5 days after transfection
Description: Following a recent finding that VentX is expressed in human primary monocytes, VentX expression was examined during primary monocytes to dendritic cells differentiation induced by GM-CSF and IL-4 treatment. […] To explore potential role of VentX in DC differentiation, the effects of VentX knockdown on in vitro DCs differentiation were examined. […] (Iwamoto, et al. 2007 J Immunol 179(3): p. 1449-57; Gabriele, et al. 2004 Blood 103(3): p. 980-7.) To obtain a long-lasting knockdown effect of VentX in monocytes, a morpholino (MO) mediated VentX knockdown strategy was developed. Two different morpholino antisense oligonucleotides were designed (VentX MO and VentX MO-2) and tested for the knockdown efficiency of VentX. […] Freshly isolated CD14^+CD1a^− monocytes differentiate in vitro into immature CD14^−CD1a^+ DCs when cultured with GM-CSF and IL-4. […] To corroborate the role of VentX in regulating DCs differentiation, VentX was ectopically expressed in primary monocytes and the CD14^−CD1a^+ cells were determined after 3 days of cytokines treatment. […]
(§1) Dendritic & Antigen Presenting Cell PCR Array was purchased from SABiosciences (Valencia, Calif.). […] (Wu, et al. 2011 J Clin Invest 121(7): p. 2599-613.) Incorporated BrdU was detected with PE-conjugated anti-BrdU antibody and analyzed with flow cytometry.

IL6 = assay: Cytokine expression in transfected monocytes (reverse transcription PCR and intracellular staining); format: cell-based, human
Method: To elucidate the mechanisms underlying VentX regulated DCs differentiation and maturation, expression level of cytokines known to be important for DCs development was analyzed by reverse transcription PCR and intracellular staining. […] It has been shown that IL6 inhibits DC differentiation and maturation from both CD14^+ monocytes and CD34^+ progenitor cells. […] The effect of VentX on the activity of […] IL6 promoter luciferase reporter and several deletion mutant constructs was assessed. […] To address this question, neutralizing antibody against IL6 was added to the culture medium of VentX MO transfected monocytes and differentiation of DCs was assessed through flow cytometry analysis of CD1a surface expression.
Phenotypic analyses of DCs and THP1 cells were performed with flow cytometry after immunostaining of cells with fluorescence dye conjugated antibodies (eBioscience, San Diego, Calif.). […] Stained cells were analyzed with FACScan flow cytometer (BD Bioscience) using FlowJo software. Results are expressed as the percentage of positive cells or mean fluorescence intensity (MFI) values after subtraction of the MFI obtained from the isotype control antibody. […]

DCs = format: cell-based, human; conditions: after MO transfection; data not shown
Description: Following a recent finding that VentX is expressed in human primary monocytes, VentX expression was examined during primary monocytes to dendritic cells differentiation induced by GM-CSF and IL-4 treatment. […] To explore potential role of VentX in DC differentiation, the effects of VentX knockdown on in vitro DCs differentiation were examined. […] (Iwamoto, et al. 2007 J Immunol 179(3): p. 1449-57; Gabriele, et al. 2004 Blood 103(3): p. 980-7.) To obtain a long-lasting knockdown effect of VentX in monocytes, a morpholino (MO) mediated VentX knockdown strategy was developed. Two different morpholino antisense oligonucleotides were designed (VentX MO and VentX MO-2) and tested for the knockdown efficiency of VentX. […] Freshly isolated CD14^+CD1a^− monocytes differentiate in vitro into immature CD14^−CD1a^+ DCs when cultured with GM-CSF and IL-4. (Bell, et al. 2001 J Immunol 166(8): p. 4958-67.) Surface expression of CD1a antigen was examined in monocytes transfected with control MO or VentX MO respectively. […] To corroborate the role of VentX in regulating DCs differentiation, VentX was ectopically expressed in primary monocytes and the CD14^−CD1a^+ cells were determined after 3 days of cytokines treatment. Overexpression of VentX in monocytes greatly accelerated the DCs differentiation (FIG. 1E-F).

human primary monocytes = assay: Primary monocyte to dendritic cell differentiation induced by GM-CSF and IL4 (flow cytometry of surface antigens); format: cell-based
Method: Peripheral blood mononuclear cells (PBMC) from healthy adult donors at Dana-Farber Cancer Institute were isolated by Ficoll density gradient centrifugation. CD14^+ monocytes were purified from PBMCs using anti-CD14 antibody coated magnetic microbeads (Miltenyi Biotec, Auburn, Calif.). Monocytes were cultured in 12-well plates at 1×10^6 cells/ml with RPMI 1640 medium containing 10% fetal bovine serum (FBS), GM-CSF (100 ng/ml) and IL4 (20 ng/ml) (PeproTech, Rocky Hill, N.J.). Cytokines were added to cultures every 2 or 3 days for a total of 5 days to induce dendritic cells differentiation. Neutralizing antibody against IL6 was purchased from R&D Systems (Minneapolis, Minn.) and used at daily dose of 2.5 μg/ml. Intestinal mucosa was obtained from surgically resected specimens from patients diagnosed with inflammatory bowel diseases including Crohn's disease and ulcerative colitis. Specimens were taken from both inflamed and non-inflamed mucosa and were confirmed macroscopically and microscopically. Lamina propria mononuclear cells were isolated using previously described techniques. (Dillon, et al. 2010 J Immunol 184(12): p. 6612-21; Kamada, et al. 2008 J Clin Invest 118(6): p. 2269-80.) LPDCs were purified as the fraction of CD19^−CD1c^+ cells with magnetic microbeads (Miltenyi Biotec). To promote maturation of DCs, 100 ng/ml of E Coli LPS (Sigma-Aldrich) was added to the medium and further cultured for 24 hours. Experiments with human materials were performed in accordance with guidelines approved by the institutional review committee of Brigham and Women's Hospital. […]
Phenotypic analyses of DCs and THP1 cells were performed with flow cytometry after immunostaining of cells with fluorescence dye conjugated antibodies (eBioscience, San Diego, Calif.). […] Stained cells were analyzed with FACScan flow cytometer (BD Bioscience) using FlowJo software. Results are expressed as the percentage of positive cells or mean fluorescence intensity (MFI) values after subtraction of the MFI obtained from the isotype control antibody.

LPDCs = assay: Pro-inflammatory cytokine mRNA in DCs treated with prednisolone and LPS; format: cell-based, human; conditions: prednisolone, LPS added 24 hours later, harvested at 48 hours, FIG. 6G
Method: (§2) FIG. 6: VentX is required for the maturation of lamina propria DCs. (A) LPDCs were isolated from inflamed and non-inflamed intestinal mucosa of five IBD patients. VentX level was determined with real time PCR. (B) LPDCs were transfected with siRNA targeting VentX or control GFP through electroporation followed by culturing in medium for two days. Then cells were stimulated with LPS for overnight to induce maturation and harvested for flow cytometry analysis of surface markers and intracellular cytokines/chemokines. Filled histograms indicate siGFP transfection. […] Results are expressed as the percentage of MFI normalized to control. […] (D) LPDCs transfected with siGFP or siVentX were analyzed for the mRNA expression levels of indicated genes. […] (F) DCs were treated with prednisolone (10 μg/ml) for 48 hours or mock treated, and VentX level was determined with real time PCR. […]
(§3) Aberrant activation of DCs has been implicated in mucosal inflammation in pathogenesis of inflammatory bowl diseases. […] VetnX expression levels in these DCs were determined by RT-PCR methods. […]
as §1

VentX [2] = assay: VentX expression in LPDCs treated with prednisolone (real time PCR); format: cell-based, human; conditions: prednisolone 10 μg/ml, 48 hours, vs mock treated; FIG. 6F
Method: as §2, §3, §1

Molecule	VentX expression in DCs compared with control sequence (VentX [1])	IL1β, TNFα and IL10 expression (IL6; MO transfected cells, data not shown)	IL6 expression (IL6; monocytes + GM-CSF and IL4, 5 days, mRNA and intracellular level, FIGS. 3A and C)	cell death in DCs (DCs)	expression of CD16, CD36, CD64, mannose receptor (MR) and TLR4 (human primary monocytes; MO transfected DCs)	percentage of CD14-CD1a+ cells (human primary monocytes; monocytes + GM-CSF and IL4, 5 days, in comparison with control MO, FIG. 1A-B)	surface expression of CD1b, CD1c and CD11c (human primary monocytes; monocytes + GM-CSF and IL4, 5 days, vs control MO)	expression of pro-inflammatory cytokines, such as the IL2, TNF, CCL5 (LPDCs)	VentX expression in LPDCs (VentX [2])
5′-GAGCCCGGTTTGCATACACGGCTAA-3′ (morpholino, further chemistry not given here) [VentX MO-2, Morpholino antisense oligonucleotide targeting VentX]	inhibited VentX expression	–	–	–	–	–	–	–	–
5′-TACTCAACCCTGACATAGAGGGTAA-3′ (morpholino, further chemistry not given here) [VentX MO, Morpholino antisense oligonucleotide targeting VentX]	inhibited VentX expression	no apparent changes	consistently increased	did not cause excess cell death	remained unchanged	substantial reduction	similarly downregulated	–	–
C[C@]12C=CC(=O)C=C1CC[C@@H]1[C@@H]2[C@@H](O)C[C@@]2(C)[C@H]1CC[C@]2(O)C(=O)CO [prednisolone]	–	–	–	–	–	–	–	dramatically decreased	dramatically decreased
